The target in experiment [1] is T1, apo-sGC (sGCβ1 H105F knock-in) (Mus musculus, UniProt O54865, H105F).
T1 construct: from tissue; host or cells: lung homogenate of homozygous sGCβ1 H105F knock-in mice
T1 sequence (O54865 1-620 H105F): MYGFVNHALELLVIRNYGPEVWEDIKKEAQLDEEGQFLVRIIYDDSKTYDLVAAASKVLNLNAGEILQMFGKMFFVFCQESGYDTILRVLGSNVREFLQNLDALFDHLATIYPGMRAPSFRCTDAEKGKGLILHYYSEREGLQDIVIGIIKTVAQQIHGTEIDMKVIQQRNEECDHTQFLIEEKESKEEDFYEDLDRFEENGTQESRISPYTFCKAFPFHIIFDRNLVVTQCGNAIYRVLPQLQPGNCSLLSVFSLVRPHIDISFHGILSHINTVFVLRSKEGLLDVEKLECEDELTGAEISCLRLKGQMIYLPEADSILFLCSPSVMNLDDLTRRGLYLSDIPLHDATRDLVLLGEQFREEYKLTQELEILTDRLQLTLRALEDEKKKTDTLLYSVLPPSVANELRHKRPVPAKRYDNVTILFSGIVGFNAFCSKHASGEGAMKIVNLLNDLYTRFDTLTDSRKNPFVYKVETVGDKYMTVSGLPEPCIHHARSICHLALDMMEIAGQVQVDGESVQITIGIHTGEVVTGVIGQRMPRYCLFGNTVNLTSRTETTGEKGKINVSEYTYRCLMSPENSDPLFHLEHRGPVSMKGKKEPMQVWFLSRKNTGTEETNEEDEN
T1 sequence (Q9ERL9 1-691 partner): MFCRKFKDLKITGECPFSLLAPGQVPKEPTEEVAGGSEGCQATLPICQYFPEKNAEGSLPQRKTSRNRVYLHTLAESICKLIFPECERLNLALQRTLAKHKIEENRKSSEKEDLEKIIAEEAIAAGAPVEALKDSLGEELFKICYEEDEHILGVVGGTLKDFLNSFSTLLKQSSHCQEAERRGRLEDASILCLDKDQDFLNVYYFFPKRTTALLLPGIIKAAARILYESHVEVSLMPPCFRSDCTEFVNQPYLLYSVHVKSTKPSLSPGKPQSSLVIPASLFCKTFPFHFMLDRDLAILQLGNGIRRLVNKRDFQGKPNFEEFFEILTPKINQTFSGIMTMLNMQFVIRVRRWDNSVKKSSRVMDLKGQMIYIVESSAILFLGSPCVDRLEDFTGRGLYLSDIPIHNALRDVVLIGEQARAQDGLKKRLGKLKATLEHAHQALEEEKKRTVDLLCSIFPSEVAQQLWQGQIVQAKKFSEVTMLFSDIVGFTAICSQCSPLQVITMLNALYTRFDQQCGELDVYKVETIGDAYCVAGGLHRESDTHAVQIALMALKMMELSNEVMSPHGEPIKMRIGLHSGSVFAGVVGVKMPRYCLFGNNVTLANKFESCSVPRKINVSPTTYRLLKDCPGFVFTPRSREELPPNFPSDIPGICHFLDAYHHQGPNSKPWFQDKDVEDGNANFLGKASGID
As to the kind of experiment: sGC activity in lung homogenates of apo-sGC mice. It is filed as biochemical. On the procedure:
Adult male Sprague Dawley (SD) rats (age, 10-12 weeks) were obtained from Animal Resources Centre (Western Australia). Animals were housed on a 12 hour day/night cycle at a room temperature of 20±2° C., in the Department of Pharmacology Animal House, Monash University. The animals were fed standard rodent chow and water was available ad libitum. Homozygous male sGC(1^H105F knock-in mice (“apo-sGC mice”) were kindly provided by Tufts Medical Center, Molecular Cardiology Research Center, Boston, Mass., USA (Toonen et al., Nat Commun. 2015; 6:8482. doi: 10.1038/ncomms9482).
To measure sGC activity, cells were stimulated with 250 μM DEA/NO or 10 μM BAY58-2667 for 3 min at 37° C. Thereafter, cells were immediately lysed in 80% ethanol. Cells were scraped and, after evaporation of ethanol, re-suspended in assay buffer and sonicated. Measurement of sGC activity in crude homogenates of mouse tissue was performed as previously described (Nedvetsky et al., Brain Res. 2002; 950(1-2):148-154. doi: 10.1016/50006-8993(02)03015-9).[9] Briefly, all samples were measured as the formation of cGMP at 37° C. during 10 min in a total incubation volume of […] containing 50 mM triethanolamine-HCl (pH 7.4), 3 mM MgCl2, 3 mM glutathione (Carl Roth, Karlsruhe, Germany), 1 mM IBMX, […], 5 mM creatine phosphate, 0.25 mg/ml creatine kinase and 1 mM or 0.5 mM GTP. After adding sGC activator in the absence or presence of the sGC stimulator the reaction was started by application of GTP solution. Following incubation of each sample for 10 min the reaction was stopped by boiling for 10 min at 95° C. Thereafter the amount of cGMP was subsequently determined by a commercial enzyme immunoassay kit (Enzo Life Sciences, Lorrach, Germany or Biotrend, Cologne, Germany). In some experiments pre-incubation of freshly homogenized tissue with ODQ at 37° C. for 20 min prior measuring sGC activation was required.

For experiment [2], the system named is isolated rat mesenteric arteries. As to the kind of experiment: Relaxation of isolated rat mesenteric arteries (myograph). The source says: The animals were killed humanely via CO2 inhalation (95% CO2, 5% O2) followed by cervical dislocation and exsanguination. The required tissues were dissected and placed in ice-cold oxygenated Krebs' solution (composition in mM: NaCl 119, KCl 4.7, MgSO4 1.17, NaHCO3 25, KH2PO4 1.18, CaCl2 2.5, glucose 5.5, EDTA 0.026, pH 7.4). The collected arteries were carefully freed of fat and connective tissue and cut into 2 mm rings.
The segments were then mounted in a small vessel myograph for the measurement of changes in isometric tension. Two 40 μm stainless steel wires were inserted through the lumen of the segment, one attached to an isometric force transducer and the other to a support driven by a micrometer. The vessels were maintained in Krebs' solution at 37° C. in 7 ml myograph chambers and were continuously bubbled with carbogen (95% O2, 5% CO2). Arteries were allowed to equilibrate for a 30 min period under zero force after which their internal diameter was normalised to an equivalent transmural pressure of 100 mmHg. Changes in isometric tension were reordered using a Myograph Interface Model 610 M version 2.2 (AD Instruments, Pty Ltd) and a chart recorder (Yokogawa, Japan), or using a MacLab® (MacLab® data-acquisition system, AD Instruments Pty Ltd.), interfaced with a Macintosh Computer. Following the 30 min equilibration period at optimal resting tension, the vessels were contracted maximally using a potassium depolarising KPSS solution (composition in mM: KCl 123, MgSO4 1.17, KH2PO4 2.37, CaCl2 2.5, glucose, 5.5 and EDTA 0.026). After the maximum contraction reached a plateau, the vessels were washed thoroughly using Krebs' solution and the tension allowed to return to the baseline. The vessels were then pre-contracted to ≈50% maximum contraction using titrated concentration of the thromboxane A2 mimetic U46619 (0.1-100 nM) and a titrated concentration of the al agonist cirazoline (1-100 nM). Subsequently, cumulative (0.5 log unit) concentration response curve to BAY 58-2667 (1 pM-0.1 μM) were constructed in the presence and absence of 100nM BAY 41-2272 (100 nM). All treatments used in our study including the pre-incubation with 10 μM ODQ for 30 min were added before the 50% pre-contraction with cirazoline and U46619 and only one concentration response curve to any vasodilator was constructed in each segment of the blood vessel. At the completion of each concentration response curve, maximal relaxation was achieved by adding nifedipine 10 μM.
Results are expressed as mean±s.e.m, with n representing the number of samples used from separate subjects. Statistical significance was accepted at the P<0.05 level. Relaxation responses to BAY58-2667 were expressed as a percentage reversal of the level of pre-contraction to U46619, with the response to nifedipine 10 μM defined as 100% relaxation. The individual response curves obtained for each vasodilator were fitted using non-linear regressions (Graphpad Prism®, version 5). In-vitro experiments have been performed with n=3 and n=1. Maximal relaxation values (%) at specific concentrations of the compounds were compared. For multiple comparisons, student's t-test or one-way analysis of variance (ANOVA) was followed by Bonferroni's test. • The results of our experiments are represented by the following non-limiting examples.

Experiment [3] deals with C57B16/J mice, transient occlusion of the middle cerebral artery (tMCAO). As to the kind of experiment: tMCAO ischemia model, infarct size. It counts as in vivo, mouse. As to conditions: 0.1 mg/kg i.p. 1 h after reperfusion; 1 h tMCAO, 24 h reperfusion; versus non-treated animals (FIG. 10). On the procedure: C57B16/J mice were anesthetized with isoflurane (0.6% in oxygen). The animal was placed on a heating-pad, and rectal temperature was maintained at 37.0° C. Transient cerebral ischemia was induced using an intraluminal filament technique. Using a surgical microscope (Tecnoscopio OPMI pico, Carl Zeiss, Meditec Iberia SA, Spain), a midline neck incision was made and the right common and external carotid arteries were isolated and permanently ligated. A microvascular temporarily ligature was placed on the internal carotid artery to temporarily stop the blood flow. A silicon rubber-coated monofilament (6023910PK10, Doccol, USA) was inserted through a small incision into the common carotid artery and advanced into the internal carotid artery until a resistance is felt. […]
After sacrificing the mice, brains were quickly removed and cut in four 2-mm thick coronal sections using a mouse brain slice matrix (Harvard Apparatus, USA). […] Indirect infarct volumes were calculated by volumetry (ImageJ software, National Institutes of Health, USA) according to the following equation: Vindirect (mm^3)=Vinfarct×(1−(Vih−Vch)/Vch), where the term (Vih−Vch) represents the volume difference between the ischemic hemisphere and the control hemisphere and (Vih−Vch)/Vch expresses this difference as a percentage of the control hemisphere.

Turning to `O=C(O)CCCCN(CCc1ccccc1OCc1ccc(CCc2ccccc2)cc1)Cc1ccc(C(=O)O)cc1` [BAY 58-2667], the “effect of BAY 58-2667 on sGC activity in the presence of BAY 41-2272” value in experiment [1] (0.3 μM BAY 58-2667 + 10 μM BAY 41-2272, fold stimulation versus basal activity (FIG. 1)) is on record as “potentiated”. Besides, the “sGC activity, response to compound alone” value in experiment [1] (lung homogenates of apo-sGC mice, compound alone) is reported as “fully responsive”. The “potentiation of BAY 58-2667 by BAY 41-2272” value in experiment [1] (lung homogenates of apo-sGC mice, maximal efficiency in the nano-molar range) was “potentiation”. Moreover, the “maximal relaxation, BAY 58-2667 combined with BAY 41-2272” value in experiment [2] (0.0003 μM BAY 58-2667 + 0.1 μM BAY 41-2272 (FIG. 2)), in experiment [2] (0.001 μM BAY 58-2667 + 0.1 μM BAY 41-2272 (FIG. 3)) and in experiment [2] (0.003 μM BAY 58-2667 + 0.1 μM BAY 41-2272 (FIG. 4)) was “Super-additive effects” in each case.
In the case of `COC(=O)N(C)c1c(N)nc(-c2nn(Cc3ccccc3F)c3ncccc23)nc1N` [BAY 63-2521, riociguat], the “infarct size / infarct volume” value in experiment [3] is “reduces infarct size”.
